The results in this text go back to publication PMC6154558, “Discovery and Biological Evaluation of a Series of Pyrrolo[2,3-b]pyrazines as Novel FGFR Inhibitors” (Molecules : A Journal of Synthetic Chemistry and Natural …, 2017).

In one experiment the target is T1, FGFR1 (Homo sapiens, UniProt P11362).
T1 construct: purchased Millipore
The experiment is described as follows: ELISA kinase assay, FGFR1. The class given is biochemical. The conditions noted are these: for inhibition at 0.01 µM: 0.01 μM compound; for inhibition at 1 µM: 1 μM compound; for IC50: mean ± SD from two separate experiments. On the procedure:
(§1) The effects of compounds on the activities of indicated (FGFR1 and c-Met) kinases were determined using enzyme-linked immunosorbent assays (ELISAs) with purified recombinant proteins. Briefly, 20 μg/mL poly (Glu, Tyr)4:1 (Sigma, St. Louis, MO, USA) was pre-coated in 96-well plates as a substrate. A 50-μL aliquot of 10 μmol/L ATP solution diluted in kinase reaction buffer (50 mmol/L HEPES (pH 7.4), 50 mmol/L MgCl2, 0.5 mmol/L MnCl2, 0.2 mmol/L Na3VO4, and 1 mmol/L DTT) was added to each well; 1 μL of various concentrations of compounds diluted in 1% DMSO (v/v) (Sigma) were then added to each reaction well. DMSO (1%, v/v) was used as the negative control. The kinase reaction was initiated by the addition of purified tyrosine kinase proteins FGFR1 (Millipore, Darmstadt, Germany) or c-Met (Millipore) diluted in 49 μL of kinase reaction buffer. After incubation for 60 min at 37 °C, the plate was washed three times with phosphate-buffered saline (PBS) containing 0.1% Tween 20 (T-PBS). Anti-phosphotyrosine (PY99) antibody (Sanra Cruz, Dallas, USA) (100 μL; 1:500, diluted in 5 mg/mL bovine serum albumin (BSA) T-PBS) was then added. After a 30-min incubation at 37 °C, the plate was washed three times, and 100 μL horseradish peroxidase-conjugated goat anti-mouse IgG (Calbiochem, Shanghai, China) (1:2000, diluted in 5 mg/mL BSA T-PBS) was added. The plate was then incubated at 37°C for 30 min and washed 3 times. A 100-μL aliquot of a solution containing 0.03% H2O2 and 2 mg/mL o-phenylenediamine in 0.1 mol/L citrate buffer (pH 5.5) was added. The reaction was terminated by the addition of 50 μL of 2 mol/L H2SO4 as the color changed, and the plate was analyzed using a multi-well spectrophotometer (SpectraMAX 190, Molecular Devices, Palo Alto, CA, USA) at 490 nm. […] (1) where IR, A490 and A490control are the inhibition rate, the absorbance value of the tested compound at 490 nm and the absorbance value of the negative control compound at 490 nm, respectively. The IC50 values were calculated from the inhibition curves in two separate experiments.
For orientation: In an ELISA, binding on a coated surface is turned into a signal by an enzyme label.

A further experiment deals with T2, c-Met (Homo sapiens, UniProt P08581).
T2 construct: purchased Millipore
T2 sequence (P08581 25-1390): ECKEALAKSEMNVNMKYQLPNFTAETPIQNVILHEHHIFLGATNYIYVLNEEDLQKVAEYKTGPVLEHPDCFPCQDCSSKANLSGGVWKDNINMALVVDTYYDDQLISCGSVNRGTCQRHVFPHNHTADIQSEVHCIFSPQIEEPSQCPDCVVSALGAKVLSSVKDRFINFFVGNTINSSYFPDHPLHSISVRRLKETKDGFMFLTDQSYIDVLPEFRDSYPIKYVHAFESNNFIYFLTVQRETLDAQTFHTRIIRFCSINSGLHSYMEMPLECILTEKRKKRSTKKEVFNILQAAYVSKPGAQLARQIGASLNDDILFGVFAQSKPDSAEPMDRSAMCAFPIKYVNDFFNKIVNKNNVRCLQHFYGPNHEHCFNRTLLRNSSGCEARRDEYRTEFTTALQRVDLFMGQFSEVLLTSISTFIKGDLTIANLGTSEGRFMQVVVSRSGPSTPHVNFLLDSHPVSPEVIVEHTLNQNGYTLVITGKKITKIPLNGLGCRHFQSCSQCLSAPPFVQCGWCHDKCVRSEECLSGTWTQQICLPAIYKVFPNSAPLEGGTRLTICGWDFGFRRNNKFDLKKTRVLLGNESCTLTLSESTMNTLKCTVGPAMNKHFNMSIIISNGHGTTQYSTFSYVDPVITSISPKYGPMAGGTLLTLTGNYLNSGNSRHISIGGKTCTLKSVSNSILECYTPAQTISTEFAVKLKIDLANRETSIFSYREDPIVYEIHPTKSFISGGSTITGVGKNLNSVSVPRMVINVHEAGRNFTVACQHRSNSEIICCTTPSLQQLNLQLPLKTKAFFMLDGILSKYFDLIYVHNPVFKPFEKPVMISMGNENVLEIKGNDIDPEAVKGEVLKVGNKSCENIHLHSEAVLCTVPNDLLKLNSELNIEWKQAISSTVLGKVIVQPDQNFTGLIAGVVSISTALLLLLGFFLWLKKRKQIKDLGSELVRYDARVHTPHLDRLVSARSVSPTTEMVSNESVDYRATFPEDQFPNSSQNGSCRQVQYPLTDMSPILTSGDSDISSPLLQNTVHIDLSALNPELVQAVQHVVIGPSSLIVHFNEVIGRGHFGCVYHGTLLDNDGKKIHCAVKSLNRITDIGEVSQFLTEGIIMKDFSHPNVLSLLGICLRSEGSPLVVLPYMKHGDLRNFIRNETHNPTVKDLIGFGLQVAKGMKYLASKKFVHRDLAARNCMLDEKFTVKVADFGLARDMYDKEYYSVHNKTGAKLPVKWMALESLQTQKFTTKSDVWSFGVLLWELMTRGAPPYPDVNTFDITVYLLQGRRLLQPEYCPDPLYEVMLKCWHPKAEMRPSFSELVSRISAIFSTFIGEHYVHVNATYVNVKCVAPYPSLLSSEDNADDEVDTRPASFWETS
As to the kind of experiment: ELISA kinase assay, c-Met. The class given is biochemical. The conditions noted are these: for inhibition at 0.01 µM: 0.01 μM compound; for inhibition at 0.1 µM: 0.1 μM compound; for inhibition at 1 µM: 1 μM compound. As to the method: as §1

Where [1] appears, read: 10 μM compound, mean from two separate experiments.

Several values for one entry are separate records, joined by “and”; a condition that tells them apart may be missing. Equal entries are not always repeated.

T1 sequence (P11362 22-822): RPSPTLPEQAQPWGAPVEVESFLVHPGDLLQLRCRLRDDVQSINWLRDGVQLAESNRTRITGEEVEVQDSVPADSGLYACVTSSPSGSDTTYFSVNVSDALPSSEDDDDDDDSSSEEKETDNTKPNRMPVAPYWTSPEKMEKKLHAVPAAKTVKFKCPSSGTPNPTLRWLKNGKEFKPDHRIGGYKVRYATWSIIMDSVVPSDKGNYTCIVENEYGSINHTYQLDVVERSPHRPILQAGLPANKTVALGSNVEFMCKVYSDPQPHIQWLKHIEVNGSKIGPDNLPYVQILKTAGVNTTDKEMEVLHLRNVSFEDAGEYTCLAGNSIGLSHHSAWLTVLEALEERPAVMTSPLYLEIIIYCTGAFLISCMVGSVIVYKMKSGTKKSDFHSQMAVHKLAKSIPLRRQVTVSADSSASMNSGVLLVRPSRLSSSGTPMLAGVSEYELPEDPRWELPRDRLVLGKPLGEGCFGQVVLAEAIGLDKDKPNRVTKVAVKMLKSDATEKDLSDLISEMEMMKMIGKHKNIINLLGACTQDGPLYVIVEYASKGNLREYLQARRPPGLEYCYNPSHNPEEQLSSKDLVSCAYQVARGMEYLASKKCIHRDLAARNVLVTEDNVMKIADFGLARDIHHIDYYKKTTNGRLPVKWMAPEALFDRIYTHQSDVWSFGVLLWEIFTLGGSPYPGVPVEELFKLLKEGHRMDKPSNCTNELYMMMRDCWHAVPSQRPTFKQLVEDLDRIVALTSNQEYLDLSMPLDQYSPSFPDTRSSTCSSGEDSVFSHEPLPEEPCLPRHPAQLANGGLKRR

Broadly, the inhibition is the relative decrease from the control value, in per cent. As for `CCC(=O)n1cc(-c2cnc3ccn(S(=O)(=O)c4cccc([N+](=O)[O-])c4)c3n2)cn1` [Compound 24, 1-(4-(5-((3-Nitrophenyl)sulfonyl)-5H-pyrrolo[2,3-b]pyrazin-3-yl)-1H-pyrazol-1-yl)propan-1-one], on FGFR1, the inhibition at 0.01 µM was found to be 29.3% and the inhibition at 1 µM worked out at 60.9%. Besides, the inhibition at 0.1 µM at FGFR1 (0.1 μM compound) is less than 40%. The “FGFR1 Inhibition (%)” value at FGFR1 (0.1 μM compound, 0.1 µM) is 30.2%.
What is called IC50 is the point on the concentration scale where inhibition reaches its midpoint. A high value points to a need for much substance. Regarding `Cn1cc(-c2cnc3ccn(S(=O)(=O)c4cccc([N+](=O)[O-])c4)c3n2)cn1` [Compound 17, 3-(1-Methyl-1H-pyrazol-4-yl)-5-((3-nitrophenyl)sulfonyl)-5H-pyrrolo[2,3-b]pyrazine], at FGFR1 (0.1 μM compound), the inhibition at 0.1 µM was determined as 61.1%. In addition, at FGFR1, the inhibition at 1 µM amounted to 76.4% and the IC50 is 85.9 ± 21.2 nM. Besides, the inhibition at 10 µM against FGFR1 (setting [1]) turned out to be 92.1%. At c-Met, the inhibition at 0.01 µM is -5.4%, the inhibition at 0.1 µM was -1.5% and the inhibition at 1 µM is 30.6%.
Turning to `Cn1cc(-c2cnc3cnn(Cc4ccccc4)c3c2)cn1` [Compound 6, 1-Benzyl-6-(1-methyl-1H-pyrazol-4-yl)-1H-pyrazolo[4,3-b]pyridine], the inhibition at 10 µM against FGFR1 (setting [1]) came to 53%.
On to `CC(=O)Nc1cccc(S(=O)(=O)n2ccc3ncc(-c4cnn(C)c4)nc32)c1` [Compound 21, N-(3-((3-(1-Methyl-1H-pyrazol-4-yl)-5H-pyrrolo[2,3-b]pyrazin-5-yl)sulfonyl)phenyl)acetamide], for which the inhibition at 0.1 µM at FGFR1 (0.1 μM compound) came out at 44.7%. Further, on FGFR1, the inhibition at 1 µM is 50.9%. For the same compound, the inhibition at 10 µM at FGFR1 (setting [1]) turned out to be 79%.
The matching figures for `Cn1cc(-c2cnc3ccn(S(=O)(=O)c4ccc([N+](=O)[O-])cc4)c3n2)cn1` [Compound 18, 3-(1-Methyl-1H-pyrazol-4-yl)-5-((4-nitrophenyl)sulfonyl)-5H-pyrrolo[2,3-b]pyrazine]: 17.4%, 12.8% and 15.5%.
For the compound `Cn1cc(-c2cnc3cnn(CCc4ccccc4)c3c2)cn1` [Compound 7, 6-(1-Methyl-1H-pyrazol-4-yl)-1-phenethyl-1H-pyrazolo[4,3-b]pyridine], the inhibition at 10 µM against FGFR1 (setting [1]) stood at 55.9%.
As for `CC(=O)Cn1cc(-c2cnc3ccn(S(=O)(=O)c4cccc([N+](=O)[O-])c4)c3n2)cn1` [Compound 25, 1-(4-(5-((3-Nitrophenyl)sulfonyl)-5H-pyrrolo[2,3-b]pyrazin-3-yl)-1H-pyrazol-1-yl)propan-2-one], on FGFR1, the inhibition at 0.01 µM was found to be 32.8%; the inhibition at 1 µM stood at 63.4%; the IC50 was 45 nM and 45.9 nM. Besides, the inhibition at 0.1 µM against FGFR1 (0.1 μM compound) was found to be 55.7%. For the same compound, at c-Met, the inhibition at 0.01 µM is 5.5%, the inhibition at 0.1 µM is 5% and the inhibition at 1 µM was found to be 14.1%.
Take `CC(=O)c1ccc(-c2cnc3ccn(S(=O)(=O)c4cccc([N+](=O)[O-])c4)c3n2)cc1` [Compound 26, 1-(4-(5-((3-Nitrophenyl)sulfonyl)-5H-pyrrolo[2,3-b]pyrazin-3-yl)phenyl)ethan-1-one]: at FGFR1 (0.1 μM compound), the inhibition at 0.1 µM was determined as 35.7%. Moreover, on FGFR1, the inhibition at 1 µM was 57.9%.
As to `Cn1cc(-c2cnc3ccn(S(=O)(=O)c4ccc(Cl)cc4)c3n2)cn1` [Compound 14, 5-((4-Chlorophenyl)sulfonyl)-3-(1-methyl-1H-pyrazol-4-yl)-5H-pyrrolo[2,3-b]pyrazine], on FGFR1 (0.1 μM compound), the inhibition at 0.1 µM turned out to be 22%. Further, the inhibition at 1 µM on FGFR1 turned out to be 27.2%. Besides, the inhibition at 10 µM at FGFR1 (setting [1]) turned out to be 45.2%.
Regarding `Cn1cc(-c2cnc3ccn(S(=O)(=O)c4ccc(F)cc4F)c3n2)cn1` [Compound 15, 5-((2,4-Difluorophenyl)sulfonyl)-3-(1-methyl-1H-pyrazol-4-yl)-5H-pyrrolo[2,3-b]pyrazine], the inhibition at 0.1 µM against FGFR1 (0.1 μM compound) is 23.6%. Moreover, the inhibition at 1 µM on FGFR1 came out at 31.2%. The inhibition at 10 µM at FGFR1 (setting [1]) came out at 55.6%.
As for `Cn1cc(-c2cnc3ccn(S(=O)(=O)c4ccccc4C#N)c3n2)cn1` [Compound 13, 2-((3-(1-Methyl-1H-pyrazol-4-yl)-5H-pyrrolo[2,3-b]pyrazin-5-yl)sulfonyl)benzonitrile], the inhibition at 0.1 µM against FGFR1 (0.1 μM compound) turned out to be 40.3%. For the same compound, on FGFR1, the inhibition at 1 µM came out at 32.6%. Further, the inhibition at 10 µM against FGFR1 (setting [1]) amounted to 59.7%.
Take `Cn1cc(-c2cnc3cnn(S(=O)(=O)c4ccccc4)c3c2)cn1` [Compound 4, 6-(1-Methyl-1H-pyrazol-4-yl)-1-(phenylsulfonyl)-1H-pyrazolo[4,3-b]pyridine]: the inhibition at 1 µM at FGFR1 is 47.1%. Besides, the inhibition at 10 µM against FGFR1 (setting [1]) was determined as 87.8%.
On to `COc1cccc2cc(-c3cnc4ccn(S(=O)(=O)c5cccc([N+](=O)[O-])c5)c4n3)[nH]c12` [Compound 28, 3-(7-Methoxy-1H-indol-2-yl)-5-((3-nitrophenyl)sulfonyl)-5H-pyrrolo[2,3-b]pyrazine], for which, on FGFR1, the inhibition at 0.01 µM was determined as 27.2% and the inhibition at 1 µM is 62.4%. Besides, the inhibition at 0.1 µM at FGFR1 (0.1 μM compound) was determined as 34%.
Regarding `Cn1cc(-c2cnc3ccn(S(=O)(=O)c4cccc(N)c4)c3n2)cn1` [Compound 19, 3-((3-(1-Methyl-1H-pyrazol-4-yl)-5H-pyrrolo[2,3-b]pyrazin-5-yl)sulfonyl)aniline], the inhibition at 0.1 µM against FGFR1 (0.1 μM compound) was 34.7%. In addition, the inhibition at 1 µM against FGFR1 is 57.5%. For the same compound, the inhibition at 10 µM against FGFR1 (setting [1]) amounted to 82.2%.
Consider `CC(=O)n1cc(-c2cnc3ccn(S(=O)(=O)c4cccc([N+](=O)[O-])c4)c3n2)cn1` [Compound 23, 1-(4-(5-((3-Nitrophenyl)sulfonyl)-5H-pyrrolo[2,3-b]pyrazin-3-yl)-1H-pyrazol-1-yl)ethan-1-one], for which, on FGFR1, the inhibition at 0.01 µM was 36.5% and the inhibition at 1 µM stood at 58.8%. The inhibition at 0.1 µM at FGFR1 (0.1 μM compound) was less than 40%. Besides, the “FGFR1 Inhibition (%)” value on FGFR1 (0.1 μM compound, 0.1 µM) came to 37.8%.
As for `Cn1cc(-c2cnc3ccn(S(=O)(=O)c4ccccc4)c3n2)cn1` [Compound 9, 3-(1-Methyl-1H-pyrazol-4-yl)-5-(phenylsulfonyl)-5H-pyrrolo[2,3-b]pyrazine], the inhibition at 0.1 µM against FGFR1 (0.1 μM compound) was 46%. Further, at FGFR1 (setting [1]), the inhibition at 10 µM was found to be 93.3%. For the same compound, the “FGFR1 Inhibition (%)” value on FGFR1 (10 μM compound, mean from two separate experiments, 10 µM) was 90.5%.
Turning to `CCC(=O)Nc1cccc(S(=O)(=O)n2ccc3ncc(-c4cnn(C)c4)nc32)c1` [Compound 22, N-(3-((3-(1-Methyl-1H-pyrazol-4-yl)-5H-pyrrolo[2,3-b]pyrazin-5-yl)sulfonyl)phenyl)propionamide], at FGFR1 (0.1 μM compound), the inhibition at 0.1 µM amounted to 27.7%. Moreover, at FGFR1, the inhibition at 1 µM is 17.3%. On FGFR1 (setting [1]), the inhibition at 10 µM is 38.7%.
Regarding `Cc1ncc(-c2cnn(C)c2)cc1NS(=O)(=O)c1ccccc1` [Compound 10, N-(2-Methyl-5-(1-methyl-1H-pyrazol-4-yl)pyridin-3-yl)benzenesulfonamide], the inhibition at 1 µM on FGFR1 was 15.4%. Moreover, the inhibition at 10 µM against FGFR1 (setting [1]) amounted to 50%.
As to `Cn1cc(-c2cnc3ccn(S(=O)(=O)C4CCCC4)c3n2)cn1` [Compound 11, 5-(Cyclopentylsulfonyl)-3-(1-methyl-1H-pyrazol-4-yl)-5H-pyrrolo[2,3-b]pyrazine], the inhibition at 0.1 µM against FGFR1 (0.1 μM compound) is 26.8%. The inhibition at 1 µM at FGFR1 is 20.8%. In addition, the inhibition at 10 µM against FGFR1 (setting [1]) is 34.7%.
For `Cn1cc(-c2cnc3cnn(S(=O)(=O)Cc4ccccc4)c3c2)cn1` [Compound 5, 1-(Benzylsulfonyl)-6-(1-methyl-1H-pyrazol-4-yl)-1H-pyrazolo[4,3-b]pyridine], the inhibition at 10 µM against FGFR1 (setting [1]) was 46.1%.
Consider `Cn1cc(-c2cnc3ccn(S(=O)(=O)c4ccc(N)cc4)c3n2)cn1` [Compound 20, 4-((3-(1-Methyl-1H-pyrazol-4-yl)-5H-pyrrolo[2,3-b]pyrazin-5-yl)sulfonyl)aniline], for which the inhibition at 0.1 µM at FGFR1 (0.1 μM compound) amounted to 31.8%. The inhibition at 1 µM at FGFR1 was found to be 24.2%. In addition, the inhibition at 10 µM on FGFR1 (setting [1]) was determined as 42.4%.
For `Cn1cc(-c2cnc3ccn(S(=O)(=O)c4ccc(Cl)c(Cl)c4)c3n2)cn1` [Compound 16, 5-((3,4-Dichlorophenyl)sulfonyl)-3-(1-methyl-1H-pyrazol-4-yl)-5H-pyrrolo[2,3-b]pyrazine] the same measures were 13.6%, 34.8% and 74.5%.
For `Cn1cc(-c2cnc3ccn(S(=O)(=O)C4CCCCC4)c3n2)cn1` [Compound 12, 5-(Cyclohexylsulfonyl)-3-(1-methyl-1H-pyrazol-4-yl)-5H-pyrrolo[2,3-b]pyrazine] the same measures were 29.4%, 24.1% and 53.3%.
For `Cn1cc(-c2cnc3ccn(S(=O)(=O)c4ccccc4)c3c2)cn1` [Compound 8, 6-(1-Methyl-1H-pyrazol-4-yl)-1-(phenylsulfonyl)-1H-pyrrolo[3,2-b]pyridine], the inhibition at 1 µM at FGFR1 was 31.6%. Also, the inhibition at 10 µM against FGFR1 (setting [1]) worked out at 80.4%.
